Measurements published in patent US20230270714A1, “SALVINORIN COMPOSITIONS” (priority 2021, published 2023).
Values after ≈ are worked out from the molar mass of the structure shown. Values joined by “and” are separate entries in the source; they are usually repeats but may differ in a detail not shown here. Equal entries are not always repeated.

Experiments:
[1] = Pharmacokinetics of subcutaneous Salvinorin A in rats, Day 1 and Day 8 (in 1-methyl-2-pyrrolidine, polyethylene glycol 400 1:9 v/v); format: in vivo, Sprague-Dawley rats; details: for time to peak plasma concentration (Tmax): summary of two separate studies
Experimental: In another experiment Salvinorin A was formulated at three different dose concentrations (1 mg/mL, 5 mg/mL, and 10 mg/mL Salvinorin A in 1-methyl-2-pyrrolidine, polyethylene glycol 400 at a 1:9 v/v ratio) and administered via injection (subcutaneous) to three groups of Sprague-Dawley rats (each group including female and male rats). The formulation containing 10 mg/mL Salvinorin A was administered as two injections at separate dosage sites (total dose of 100 mg/kg). The same groups of rats were administered a second dose of the injectable composition 7 days after the first dosing.

[2] = Pharmacokinetics of subcutaneous Salvinorin A in rats, first experiment (in 1-methyl-2-pyrrolidine, polyethylene glycol 400 1:9 v/v); format: in vivo, male Sprague-Dawley rats
Experimental: A series of experiments were conducted in order to evaluate the pharmacokinetics of injectable Salvinorin A compositions in rats. In the first experiment Salvinorin A was formulated at two different dose concentrations (5 mg/mL and 20 mg/mL Salvinorin A in 1-methyl-2-pyrrolidine, polyethylene glycol 400 at a 1:9 v/v ratio) and administered via injection (subcutaneous) to two groups of male Sprague-Dawley rats.

[3] = Solubility of Salvinorin A API and Salvinorin A loaded buccal films in 10 mM PBS pH 7; format: physicochemical
Experimental: After 3 hours samples were filtered through 0.45/0.22 micron filter and tested for content by HPLC analysis.

[4] = Solubility of Salvinorin A in solubilizer oils (HPLC)
[5] = Salvinorin A solubility in polar aprotic solvents; format: physicochemical
Experimental: In Table 9 below the solubility of Salvinorin A in polar aprotic solvents was evaluated by increasing the amount of Salvinorin A in the candidate solvents.

[6] = Solubilization of Salvinorin A mixed with solubilizers in water (supersaturated mixtures, HPLC)
[7] = administered orally, even at higher doses; cited from earlier work
[8] = Day 1, Group 10, 5 mg/kg subcutaneous, Mean of M and F
[9] = Day 1, Group 10, 5 mg/kg subcutaneous, Sex F
[10] = Day 1, Group 10, 5 mg/kg subcutaneous, Sex M
[11] = Day 1, Group 11, 25 mg/kg subcutaneous, Mean of M and F
[12] = Day 1, Group 11, 25 mg/kg subcutaneous, Sex F
[13] = Day 1, Group 11, 25 mg/kg subcutaneous, Sex M
[14] = Day 1, Group 12, 100 mg/kg subcutaneous (two injections), Mean of M and F
[15] = Day 1, Group 12, 100 mg/kg subcutaneous (two injections), Sex F
[16] = Day 1, Group 12, 100 mg/kg subcutaneous (two injections), Sex M
[17] = Day 8 (second dose), Group 10, 5 mg/kg subcutaneous, Mean of M and F
[18] = Day 8 (second dose), Group 10, 5 mg/kg subcutaneous, Sex F
[19] = Day 8 (second dose), Group 10, 5 mg/kg subcutaneous, Sex M
[20] = Day 8 (second dose), Group 11, 25 mg/kg subcutaneous, Mean of M and F
[21] = Day 8 (second dose), Group 11, 25 mg/kg subcutaneous, Sex F
[22] = Day 8 (second dose), Group 11, 25 mg/kg subcutaneous, Sex M
[23] = Day 8 (second dose), Group 12, 100 mg/kg subcutaneous (two injections), Mean of M and F
[24] = Day 8 (second dose), Group 12, 100 mg/kg subcutaneous (two injections), Sex F
[25] = Day 8 (second dose), Group 12, 100 mg/kg subcutaneous (two injections), Sex M
[26] = Group 1, 25 mg/kg subcutaneous, Mean
[27] = Group 1, 25 mg/kg subcutaneous, individual rats 0, 1, 2, 25 mg/kg
[28] = Group 2, 100 mg/kg subcutaneous, Mean
[29] = Group 2, 100 mg/kg subcutaneous, individual rats 3, 4, 5, 100 mg/kg

SMILES: COC(=O)[C@@H]1C[C@H](OC(C)=O)C(=O)[C@H]2[C@@]1(C)CC[C@H]1C(=O)O[C@H](c3ccoc3)C[C@]21C [Salvinorin A]
- AUClast [1, 8]: 191 ng·h/mL
- Cmax [1, 8]: 67.1 ng/mL
- Tmax [1, 8]: 3 h
- AUClast [1, 9]: 233 ng·h/mL
- Cmax [1, 9]: 75.8 ng/mL
- Tlast [1, 9]: 4 h
- Tmax [1, 9]: 4 h
- AUClast [1, 10]: 148 ng·h/mL
- Cmax [1, 10]: 58.4 ng/mL
- Tlast [1, 10]: 4 h
- Tmax [1, 10]: 2 h
- AUClast [1, 11]: 375 ng·h/mL
- Cmax [1, 11]: 192 ng/mL
- Tmax [1, 11]: 0.75 h
- AUClast [1, 12]: 389 ng·h/mL
- Cmax [1, 12]: 250 ng/mL
- Tlast [1, 12]: 4 h
- Tmax [1, 12]: 0.5 h
- AUClast [1, 13]: 361 ng·h/mL
- Cmax [1, 13]: 135 ng/mL
- Tlast [1, 13]: 4 h
- Tmax [1, 13]: 1 h
- AUC0-00 [1, 14]: 1580 ng·h/mL
- AUClast [1, 14]: 1540 ng·h/mL
- Cmax [1, 14]: 370 ng/mL
- Tmax [1, 14]: 0.075 h
- T½ [1, 14]: 4.79 h
- AUC0-00 [1, 15]: 1920 ng·h/mL
- AUClast [1, 15]: 1870 ng·h/mL
- Cmax [1, 15]: 419 ng/mL
- Tlast [1, 15]: 24 h
- Tmax [1, 15]: 1 h
- T½ [1, 15]: 4.80 h
- AUC0-00 [1, 16]: 1240 ng·h/mL
- AUClast [1, 16]: 1210 ng·h/mL
- Cmax [1, 16]: 321 ng/mL
- Tlast [1, 16]: 24 h
- Tmax [1, 16]: 0.5 h
- T½ [1, 16]: 4.78 h
- AUClast [1, 17]: 200 ng·h/mL
- Cmax [1, 17]: 74.5 ng/mL
- Tmax [1, 17]: 2 h
- AUClast [1, 18]: 211 ng·h/mL
- Cmax [1, 18]: 78.3 ng/mL
- Tlast [1, 18]: 4 h
- Tmax [1, 18]: 2 h
- AUClast [1, 19]: 188 ng·h/mL
- Cmax [1, 19]: 70.6 ng/mL
- Tlast [1, 19]: 4 h
- Tmax [1, 19]: 2 h
- (h) [1, 20]: 4.54 h
- AUC0-00 [1, 20]: 735 ng·h/mL
- AUClast [1, 20]: 723 ng·h/mL
- Cmax [1, 20]: 174 ng/mL
- Tmax [1, 20]: 0.75 h
- (h) [1, 21]: 4.16 h
- AUC0-00 [1, 21]: 958 ng·h/mL
- AUClast [1, 21]: 946 ng·h/mL
- Cmax [1, 21]: 162 ng/mL
- Tlast [1, 21]: 24 h
- Tmax [1, 21]: 0.5 h
- (h) [1, 22]: 4.92 h
- AUC0-00 [1, 22]: 512 ng·h/mL
- AUClast [1, 22]: 500 ng·h/mL
- Cmax [1, 22]: 185 ng/mL
- Tlast [1, 22]: 24 h
- Tmax [1, 22]: 1 h
- (h) [1, 23]: 5.00 h
- AUC0-00 [1, 23]: 1420 ng·h/mL
- AUClast [1, 23]: 1380 ng·h/mL
- Cmax [1, 23]: 341 ng/mL
- Tmax [1, 23]: 0.05 h
- (h) [1, 24]: 4.80 h
- AUC0-00 [1, 24]: 1520 ng·h/mL
- AUClast [1, 24]: 1470 ng·h/mL
- Cmax [1, 24]: 315 ng/mL
- Tlast [1, 24]: 24 h
- Tmax [1, 24]: 0.5 h
- (h) [1, 25]: 5.20 h
- AUC0-00 [1, 25]: 1320 ng·h/mL
- AUClast [1, 25]: 1280 ng·h/mL
- Cmax [1, 25]: 368 ng/mL
- Tlast [1, 25]: 24 h
- Tmax [1, 25]: 0.5 h
- time to peak plasma concentration (Tmax) ([1]; subcutaneous dosing in the rat at 5 mg/kg): 2 to 4 h
- time to peak plasma concentration (Tmax) ([1]; subcutaneous dosing in the rat at 25 and 100 mg/kg): 0.5 h
- AUC0-00 [2, 26]: 457.0 ng·h/mL
- AUClast [2, 26]: 427.3 ng·h/mL
- Cmax [2, 26]: 215.3 ng/mL
- Tmax [2, 26]: 0.50 h
- T½ [2, 26]: 1.5 h
- Tmax ([2]; Group 1, 25 mg/kg subcutaneous, individual rats 0, 1, 2): 0.50 h
- AUC0-00 [2, 27]: 389 ng·h/mL and 422 ng·h/mL and 560 ng·h/mL
- AUClast [2, 27]: 362 ng·h/mL and 405 ng·h/mL and 515 ng·h/mL
- Cmax [2, 27]: 209 ng/mL and 213 ng/mL and 224 ng/mL
- T½ [2, 27]: 1.00 h and 1.58 h and 1.96 h
- AUC0-00 [2, 28]: 419.3 ng·h/mL
- AUClast [2, 28]: 395.0 ng·h/mL
- Cmax [2, 28]: 183.3 ng/mL
- Tmax [2, 28]: 0.7 h
- T½ [2, 28]: 1.5 h
- AUC0-00 [2, 29]: 365 ng·h/mL and 498 ng·h/mL and 395 ng·h/mL
- AUClast [2, 29]: 348 ng·h/mL and 461 ng·h/mL and 376 ng·h/mL
- Cmax [2, 29]: 187 ng/mL and 208 ng/mL and 155 ng/mL
- Tmax [2, 29]: 1.00 h and 0.50 h
- T½ [2, 29]: 0.87 h and 1.91 h and 1.73 h
- Solubility ([3]; 4 mg equivalent of API powder or film in 10 mL 10 mM PBS, pH 7, 3 hours, filtered, HPLC): 1.8 µg/mL
- Solubility (in words) ([3]; 10 mM PBS, pH 7.0): very low solubility
- Solubility (mg/ml) HPLC ([4]; Eucaliptol 5 g, Salvinorin A 12.00 mg): 0.108 mg/mL (≈ 250 µM)
- Solubility (mg/ml) HPLC ([4]; L Menthone 5 g, Salvinorin A 10.00 mg): 0.101 mg/mL (≈ 234 µM)
- Solubility (mg/ml) HPLC ([4]; Oleyl Alcohol 5 g, Salvinorin A 11.00 mg): 0.065 mg/mL (≈ 150 µM)
- Solubility (mg/ml) HPLC ([4]; Peppermint oil 5 g, Salvinorin A 9.90 mg): 0.384 mg/mL (≈ 888 µM)
- Solubility (mg/ml) HPLC ([4]; S Limonene 5 g, Salvinorin A 10.00 mg): 0.052 mg/mL (≈ 120 µM)
- Solubility (mg/ml) HPLC ([4]; Soybean oil 5 g, Salvinorin A 11.00 mg): 0.032 mg/mL (≈ 74 µM)
- Solubility (Y= soluble, N= not soluble completely) ([5]; DMA, 100 mg/ml): Y (Y= soluble)
- Solubility (Y= soluble, N= not soluble completely) ([5]; DMA, 200 mg/ml): N (N= not soluble completely)
- Solubility (Y= soluble, N= not soluble completely) ([5]; DMSO, 100 mg/ml): Y (Y= soluble)
- Solubility (Y= soluble, N= not soluble completely) ([5]; DMSO, 200 mg/ml): N (N= not soluble completely)
- Solubility (Y= soluble, N= not soluble completely) ([5]; NMP, 20 mg/ml): Y (Y= soluble)
- Solubility (Y= soluble, N= not soluble completely) ([5]; NMP, 100 mg/ml): Y (Y= soluble)
- Solubility (Y= soluble, N= not soluble completely) ([5]; NMP, 200 mg/ml): Y (Y= soluble)
- Solubility (mg/ml) HPLC ([6]; Benzalkonium chloride (BKC) 50 mg, Salvinorin A 21 mg, water 10 ml): 0.008 mg/mL (≈ 18.5 µM)
- Solubility (mg/ml) HPLC ([6]; Poloxamer 407 (Lutrol micro 127 MP) 150 mg, Salvinorin A 21 mg, water 10 ml): 0.008 mg/mL (≈ 18.5 µM)
- Solubility (mg/ml) HPLC ([6]; SPAN 60 103.00 mg, Salvinorin A 12.00 mg, water 5 ml): 0.013 mg/mL (≈ 30.1 µM)
- Solubility (mg/ml) HPLC ([6]; Sodium Deoxycholate 100 mg, Salvinorin A 22 mg, water 10 ml): 0.078 mg/mL (≈ 180 µM)
- Solubility (mg/ml) HPLC ([6]; Sodium dodecyl sulfate (SDS; SLS) 50 mg, Salvinorin A 21 mg, water 10 ml): 0.013 mg/mL (≈ 30.1 µM)
- Solubility (mg/ml) HPLC ([6]; TPGS (soluble vitamin E) 100 mg, Salvinorin A 23 mg, water 10 ml): 0.011 mg/mL (≈ 25.4 µM)
- psychoactive effects [7]: fails to exhibit any psychoactive effects
